Article PMC10485906, “Development of a Dihydroquinoline–Pyrazoline GluN2C/2D-Selective Negative Allosteric Modulator of the N-Methyl-D-aspartate Receptor” (ACS Chemical Neuroscience, 2023)
“And” between values parts separate entries of the source, which are not always exact repeats. Equal values may be shown once. Read-outs that look alike come from different tables or passages of the source.

Experiment: Mouse plasma and brain pharmacokinetics, IP administration
Assay type: in vivo
Conditions: for concentration at 0.25 h / concentration at 0.5 h / concentration at 1 h / concentration at 2 h / concentration at 4 h: intraperitoneal; for AUC: read-out: AUC0.25–4 h brain; for AUC(0-t): read-out: AUC0.25–4 h plasma (AUCLAST)
Experimental: IACUC-approved protocols and animal welfare regulations outlined in the “Guide for the Care and Use of Laboratory Animals” were both followed during the pharmacokinetic evaluation of all compounds. In vivo analysis was performed by Pharmaron (IP administration, Irvine, CA) and Sai Life (IV administration, Hinjewadi Pune, Pune, India).
A group (n = 15) of fed, male C57BL/6 mice ∼6 to 8 weeks of age was injected IP with 10 mg/kg (1 mg/mL) of drug using 50% PEG400 in water as a vehicle. Samples were collected from the blood and brain at 0.25, 0.5, 1, 2, and 4 h after administration (3 mice per time point) following CO2 anesthesia. Collection from the brain was performed as follows: the mouse is terminally anaesthetized via rising concentration of CO2 and as much blood is removed as possible via cardiac puncture. The cardiac puncture is done by opening the chest cavity to expose the heart, cutting an incision in the right auricle using surgical scissors, and finally injecting a saline solution (∼10 mL) slowly into the left ventricle via a syringe. The mouse is placed head down at a 45° angle to facilitate blood removal. After perfusion, the skull is opened and the brain is removed. The whole brain is washed with saline, dried with surgical gauze, placed in tared tubes, and stored at −75 °C before analysis. For plasma sample preparation at the 0.25–2 h time points, 15 μL of blank solution, 30 μL of plasma sample, and 150 μL were added sequentially for protein precipitation. After centrifugation, 20 μL of the supernatant and 80 μL of collection buffer were combined, and thus, the final compound concentration in plasma (ng/mL) was corrected by multiplying by 5. For plasma sample preparation at the 4 h time point, 15 μL of blank solution, 30 μL of plasma sample, and 150 μL of acetonitrile were added sequentially for protein precipitation. For all brain sample preparation, 15 μL of blank solution, 30 μL of brain samples, and 150 μL of acetonitrile were added sequentially for protein precipitation. Brain samples were prepared by adding brain (g) to deionized water (mL) in a 1:4 ratio for homogenization. The mixtures were then vortexed for 30 s and subsequently centrifuged (∼4000 rpm) for 15 min. The supernatant was diluted 3-fold with water, and a 2 μL aliquot of the diluted supernatant was injected into a Shimadzu LC-30A LC-MS/MS system with a Phenomenex 2.6 μ PFP 100A column (30 mm × 2.1 mm) using verapamil as an internal standard. A gradient from 95% water (0.1% formic acid) to 95% ACN (0.1% formic acid) was run over 2 min at a flow rate of 0.6 mL/min. Brain and blood samples were collected at 15, 30, 60, 120, and 240 min from three C57Bl/6 mice at each time point. See Tables S6–S10 for 2i concentrations.

[1] = male, C57BL/6, mouse, brain, 10 mg/kg IP
[2] = male, C57BL/6, mouse, brain, 10 mg/kg IP, read-out: Tmax brain
[3] = male, C57BL/6, mouse, plasma, 10 mg/kg IP
[4] = male, C57BL/6, mouse, plasma, 10 mg/kg IP, read-out: Tmax plasma
[5] = male, C57BL/6, mouse, plasma, 10 mg/kg IP, read-out: t1/2 plasma (converted)
[6] = male, mouse, plasma, 10 mg/kg IP, C57BL/6 mice

## O=C(O)CC(F)(F)C(=O)N1N=C(c2c(-c3ccc(Cl)cc3)c3ccccc3[nH]c2=O)CC1c1ccc(Cl)cc1 (centres unmarked) [2i]
10 mg/kg IP
  AUC % Extrapolation brain: 58%
  AUC % Extrapolation plasma: 15%
  AUCINF brain: 151 ng·h/g
  AUCLAST brain: 64 ng·h/g
  Cmax brain: 0.040 µM and 23 ng/g
10 mg/kg IP, C57BL/6 mice
  Cmax brain: 23 ng/mL
10 mg/kg IP, 0.25 h
  Brain/plasma Ratio, individual (Group 1-3): 0.012 and 0.019
  brain calculated concentration, individual (Group 1-3): 17.9 ng/g and 22.6 ng/g
10 mg/kg IP, 0.25 hr
  plasma concentration, individual (Group 1-3): 1500.0 ng/mL and 1180.0 ng/mL
10 mg/kg IP, 0.5 h
  Brain/plasma Ratio, individual (Group 1-3): 0.008 and 0.023 and 0.011
  brain calculated concentration, individual (Group 1-3): 29.1 ng/g and 18.7 ng/g
10 mg/kg IP, 0.5 hr
  plasma concentration, individual (Group 1-3): 2620.0 ng/mL and 1260.0 ng/mL and 1740.0 ng/mL
10 mg/kg IP, 1 h
  brain calculated concentration, individual (Group 1-3): 16.5 ng/g and 14.9 ng/g
10 mg/kg IP, 1 hr
  plasma concentration, individual (Group 1-3): 1270.0 ng/mL and 1170.0 ng/mL
10 mg/kg IP, 2 h
  Brain/plasma Ratio, individual (Group 1-3): 0.016 and 0.022
  brain calculated concentration, individual (Group 1-3): 18.0 ng/g and 24.3 ng/g
10 mg/kg IP, 2 hr
  plasma concentration, individual (Group 1-3): 1140.0 ng/mL and 1080.0 ng/mL
10 mg/kg IP, 4 h
  Brain/plasma Ratio, individual (Group 1-3): 0.058 and 0.050 and 0.022
  brain calculated concentration, individual (Group 1-3): 10.4 ng/g and 12.8 ng/g
10 mg/kg IP, 4 hr
  plasma concentration, individual (Group 1-3): 163.0 ng/mL and 208.0 ng/mL and 585.0 ng/mL
IP administration
  brain concentration in brain compartment: 40 nM
  brain concentration, upper limit if restricted to extracellular space: ≤ 200 nM
male, C57BL/6, mouse, brain and plasma, ip, 10 mg/kg, 10 mg/kg IP, 1 h, read-out: Brain/plasma Ratio, Mean
  Kp at 1 h: 0.013
male, C57BL/6, mouse, brain and plasma, ip, 10 mg/kg, 10 mg/kg IP, 2 h, read-out: Brain/plasma Ratio, Mean
  Kp at 2 h: 0.018
male, C57BL/6, mouse, brain and plasma, ip, 10 mg/kg, 10 mg/kg IP, 2 h, read-out: Brain/plasma Ratio, individual (Group 1-3)
  Kp at 2 h: 0.015
male, C57BL/6, mouse, brain and plasma, ip, 10 mg/kg, 10 mg/kg IP, 4 h, read-out: Brain/plasma Ratio, Mean
  Kp at 4 h: 0.043
male, C57BL/6, mouse, brain, 10 mg/kg, 10 mg/kg IP, 0.25 h, read-out: brain calculated concentration, Mean
  concentration at 0.25 h: 17.5 ng/g
male, C57BL/6, mouse, brain, 10 mg/kg, 10 mg/kg IP, 0.25 h, read-out: brain calculated concentration, individual (Group 1-3)
  concentration at 0.25 h: 12 ng/g
male, C57BL/6, mouse, brain, 10 mg/kg, 10 mg/kg IP, 0.5 h, read-out: brain calculated concentration, Mean
  concentration at 0.5 h: 22.8 ng/g
male, C57BL/6, mouse, brain, 10 mg/kg, 10 mg/kg IP, 0.5 h, read-out: brain calculated concentration, individual (Group 1-3)
  concentration at 0.5 h: 20.6 ng/g
male, C57BL/6, mouse, brain, 10 mg/kg, 10 mg/kg IP, 1 h, read-out: brain calculated concentration, Mean
  concentration at 1 h: 14.6 ng/g
male, C57BL/6, mouse, brain, 10 mg/kg, 10 mg/kg IP, 1 h, read-out: brain calculated concentration, individual (Group 1-3)
  concentration at 1 h: 12.4 ng/g
male, C57BL/6, mouse, brain, 10 mg/kg, 10 mg/kg IP, 2 h, read-out: brain calculated concentration, Mean
  concentration at 2 h: 19.4 ng/g
male, C57BL/6, mouse, brain, 10 mg/kg, 10 mg/kg IP, 2 h, read-out: brain calculated concentration, individual (Group 1-3)
  concentration at 2 h: 15.9 ng/g
male, C57BL/6, mouse, brain, 10 mg/kg, 10 mg/kg IP, 4 h, read-out: brain calculated concentration, Mean
  concentration at 4 h: 10.9 ng/g
male, C57BL/6, mouse, brain, 10 mg/kg, 10 mg/kg IP, 4 h, read-out: brain calculated concentration, individual (Group 1-3)
  concentration at 4 h: 9.5 ng/g
male, C57BL/6, mouse, brain/plasma, ip, 10 mg/kg, 10 mg/kg IP, 0.25 h, read-out: Brain/plasma Ratio, Mean
  Kp at 0.25 h: 0.014
male, C57BL/6, mouse, brain/plasma, ip, 10 mg/kg, 10 mg/kg IP, 0.25 h, read-out: Brain/plasma Ratio, individual (Group 1-3)
  Kp at 0.25 h: 0.01
male, C57BL/6, mouse, brain/plasma, ip, 10 mg/kg, 10 mg/kg IP, 0.5 h, read-out: Brain/plasma Ratio, Mean
  Kp at 0.5 h: 0.014
male, C57BL/6, mouse, brain/plasma, ip, 10 mg/kg, 10 mg/kg IP, 1 h, read-out: Brain/plasma Ratio, individual (Group 1-3)
  Kp at 1 h: 0.015
male, C57BL/6, mouse, brain/plasma, ip, 10 mg/kg, 10 mg/kg IP, read-out: Ratio_AUCLAST (Brain/plasma)
  Kp: 0.02
[1]
  AUC: 64 ng·h/mL
[2]
  Tmax: 0.5 h
male, C57BL/6, mouse, brain, 10 mg/kg IP, read-out: t1/2 brain
  half-life: > 4 h
male, C57BL/6, mouse, plasma, 10 mg/kg, 10 mg/kg IP, 0.25 hr, read-out: plasma concentration, Mean
  concentration at 0.25 h: 1310 ng/mL
male, C57BL/6, mouse, plasma, 10 mg/kg, 10 mg/kg IP, 0.25 hr, read-out: plasma concentration, individual (Group 1-3)
  concentration at 0.25 h: 1250 ng/mL
male, C57BL/6, mouse, plasma, 10 mg/kg, 10 mg/kg IP, 0.5 hr, read-out: plasma concentration, Mean
  concentration at 0.5 h: 1870 ng/mL
male, C57BL/6, mouse, plasma, 10 mg/kg, 10 mg/kg IP, 1 hr, read-out: plasma concentration, Mean
  concentration at 1 h: 1150 ng/mL
male, C57BL/6, mouse, plasma, 10 mg/kg, 10 mg/kg IP, 1 hr, read-out: plasma concentration, individual (Group 1-3)
  concentration at 1 h: 1020 ng/mL
male, C57BL/6, mouse, plasma, 10 mg/kg, 10 mg/kg IP, 2 hr, read-out: plasma concentration, Mean
  concentration at 2 h: 1090 ng/mL
male, C57BL/6, mouse, plasma, 10 mg/kg, 10 mg/kg IP, 2 hr, read-out: plasma concentration, individual (Group 1-3)
  concentration at 2 h: 1060 ng/mL
male, C57BL/6, mouse, plasma, 10 mg/kg, 10 mg/kg IP, 4 hr, read-out: plasma concentration, Mean
  concentration at 4 h: 319 ng/mL
[3]
  Cmax: 3300 nM
  AUC(0-t): 3850 ng·h/mL
male, C57BL/6, mouse, plasma, 10 mg/kg IP, read-out: AUCINF plasma
  AUC(0-inf): 4550 ng·h/mL
[4]
  Tmax: 0.5 h
[5]
  half-life: 1.5 h
[6]
  Cmax: 1870 ng/mL

## NC(=O)CC(F)(F)C(=O)N1N=C(c2c(-c3ccc(Cl)cc3)c3ccccc3[nH]c2=O)CC1c1ccc(Cl)cc1 (centres unmarked) [2k]
10 mg/kg IP, C57BL/6 mice
  Cmax brain: 13 ng/mL
[1]
  AUC: 41 ng·h/mL
[2]
  Tmax: 4 h
[3]
  AUC(0-t): 2270 ng·h/mL
[4]
  Tmax: 0.5 h
[5]
  half-life: 4.9 h
[6]
  Cmax: 815 ng/mL
